Measured values as given in US8039586B1, “Cerebral organic anion transporter and its gene” (J-Pharma Co., Ltd., priority 1998, dated 2011).
Read-outs that look alike come from different tables or passages of the source.

What was measured:
Format in all cases: cell-based
hOAT3 [1] = molecular target: T1, hOAT3 (Homo sapiens, UniProt Q8TCC7, D366H/K271E); assay: Inhibition of 3H-estrone sulfate uptake in oocyte injected with hOAT3 cRNA; design: cRNA (RNA complementary to cDNA) was prepared in vitro from the plasmid comprising the hOAT3 recovered above; expressed in transfected cells; host or cells: Xenopus oocytes injected with hOAT3 cRNA; details: 50 nM 3H-estrone sulfate; non-radiolabeled compound at 500 μM or the concentration shown in FIG. 19; one hour
T1 sequence (Q8TCC7 1-542 K271E/D366H): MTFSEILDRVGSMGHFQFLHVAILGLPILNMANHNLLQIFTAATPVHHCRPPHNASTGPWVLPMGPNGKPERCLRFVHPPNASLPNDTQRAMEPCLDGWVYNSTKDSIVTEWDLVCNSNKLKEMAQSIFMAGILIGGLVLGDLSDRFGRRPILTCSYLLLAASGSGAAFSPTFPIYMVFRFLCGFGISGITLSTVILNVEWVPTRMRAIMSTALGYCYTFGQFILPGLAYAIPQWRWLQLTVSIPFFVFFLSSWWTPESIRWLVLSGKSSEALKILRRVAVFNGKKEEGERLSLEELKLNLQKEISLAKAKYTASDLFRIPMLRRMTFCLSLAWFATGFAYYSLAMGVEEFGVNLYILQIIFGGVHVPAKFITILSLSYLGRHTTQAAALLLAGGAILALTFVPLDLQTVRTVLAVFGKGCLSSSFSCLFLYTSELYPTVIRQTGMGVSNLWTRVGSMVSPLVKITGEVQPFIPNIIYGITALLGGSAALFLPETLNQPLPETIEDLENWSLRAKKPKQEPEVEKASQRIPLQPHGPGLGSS

rat OAT3 (rk1411) [2] = molecular target: T2, rat OAT3 (rk1411) (Rattus norvegicus, UniProt Q9R1U7); assay: Inhibition of 3H-estrone sulfate uptake in oocyte injected with rk1411 cRNA
T2 construct: cRNA (RNA complementary to cDNA) was prepared in vitro from the plasmid carrying the clone (rk1411); expressed in transfected cells; host or cells: Xenopus oocytes injected with rk1411 cRNA
T2 sequence (Q9R1U7 1-536): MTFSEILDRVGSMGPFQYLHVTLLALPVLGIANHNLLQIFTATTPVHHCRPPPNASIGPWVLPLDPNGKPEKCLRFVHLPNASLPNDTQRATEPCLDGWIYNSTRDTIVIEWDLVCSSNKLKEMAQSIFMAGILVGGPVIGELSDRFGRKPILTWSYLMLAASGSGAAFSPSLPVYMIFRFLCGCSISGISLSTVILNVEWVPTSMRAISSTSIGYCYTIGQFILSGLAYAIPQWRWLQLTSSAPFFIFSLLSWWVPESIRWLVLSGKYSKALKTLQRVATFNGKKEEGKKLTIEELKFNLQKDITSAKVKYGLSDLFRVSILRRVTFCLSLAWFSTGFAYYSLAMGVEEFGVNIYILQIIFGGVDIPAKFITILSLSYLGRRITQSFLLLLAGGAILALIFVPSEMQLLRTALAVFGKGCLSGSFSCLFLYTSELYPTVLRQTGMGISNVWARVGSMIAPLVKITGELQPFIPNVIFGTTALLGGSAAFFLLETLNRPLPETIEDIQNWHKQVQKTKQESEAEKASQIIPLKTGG

rat OAT3 (rk1411) [3] = molecular target: T2, rat OAT3 (rk1411); assay: Michaelis-Menten dynamic test of organic anion transport with rk1411 in oocyte
From the text: The organic anion transport with rk1411 was subjected to the Michaelis-Menten dynamic test.

hOAT3 [4] = molecular target: T3, hOAT3 (Homo sapiens, UniProt Q8TCC7); assay: Uptake of radiolabeled compounds by Xenopus oocyte injected with hOAT3 cRNA
T3 construct: cRNA (RNA complementary to cDNA) was prepared in vitro from the plasmid comprising the hOAT3 recovered above; expressed in transfected cells; host or cells: Xenopus oocytes injected with hOAT3 cRNA
T3 sequence (Q8TCC7 1-542 K271E/D366H): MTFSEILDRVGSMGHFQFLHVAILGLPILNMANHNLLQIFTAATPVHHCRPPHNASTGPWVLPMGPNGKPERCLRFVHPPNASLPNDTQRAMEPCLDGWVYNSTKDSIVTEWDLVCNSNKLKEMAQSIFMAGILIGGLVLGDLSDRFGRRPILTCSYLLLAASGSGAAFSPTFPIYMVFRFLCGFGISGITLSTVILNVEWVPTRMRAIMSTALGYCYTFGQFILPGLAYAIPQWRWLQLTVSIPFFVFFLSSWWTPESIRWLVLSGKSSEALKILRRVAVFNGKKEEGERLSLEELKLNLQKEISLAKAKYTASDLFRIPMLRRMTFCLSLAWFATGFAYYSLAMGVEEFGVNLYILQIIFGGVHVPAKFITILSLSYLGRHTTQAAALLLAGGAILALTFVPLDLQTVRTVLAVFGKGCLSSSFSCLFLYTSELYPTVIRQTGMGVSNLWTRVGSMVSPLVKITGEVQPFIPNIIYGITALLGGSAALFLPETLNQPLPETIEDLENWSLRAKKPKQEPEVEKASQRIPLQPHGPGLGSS
Description: By using T7 RNA polymerase, cRNA (RNA complementary to cDNA) was prepared in vitro from the plasmid comprising the hOAT3 recovered above by the method by Sekine, et al. (see Sekine, T., et al. J. Biol. Chem., Vol. 272, pp. 18526-9, 1997).
According to the already reported method of Sekine, et al. (Sekine, T., et al. J. Biol. Chem., Vol. 272, pp. 18526-9, 1997), the resulting hOAT3 cRNA was injected in the Xenopus oocyte; the oocyte was subjected to an uptake test with various radiolabeled organic anions and organic cations. The control oocyte cell (oocyte cell with no injection of hOAT3 cRNA) and the oocyte cell injected with hOAT3 cRNA were cultured in a buffer containing the following radiolabels for one hour, to assay the uptake of the radiolabels into the oocytes.
In each figure, open column expresses the case of the control oocyte used; and closed column expresses the case of the oocyte injected with hOAT3 cRNA.

rat OAT3 (rk1411) [5] = molecular target: T2, rat OAT3 (rk1411); assay: Uptake of radiolabeled organic anions and cations by Xenopus oocyte expressing rk1411 (rat OAT3); details: Xenopus oocyte injected with rk1411 cRNA; FIG. 1
[6] = substrate: Nc1ccc(C(=O)NCC(=O)O)cc1; assay: Michaelis-Menten dynamic test of organic anion transport with rk1411 in oocyte; details: other: transport by rk1411 (rat OAT3) in Xenopus oocyte; FIG. 2
[7] = 1 mM unlabeled compound, Xenopus oocyte, FIG. 3
[8] = transport by rk1411 (rat OAT3) in Xenopus oocyte
[9] = substrate 100 nM, one hour, versus control oocyte
[10] = substrate 10 μM, one hour, versus control oocyte
[11] = substrate 50 nM, one hour, versus control oocyte

CC1(C)S[C@@H]2[C@H](NC(=O)Cc3ccccc3)C(=O)N2[C@H]1C(=O)O [benzylpenicillin]
inhibition of the transport of 3H-estrone sulfate with hOAT3 (hOAT3 [1]): significantly inhibited
inhibition of 3H-estrone sulfate transport with rk1411 (rat OAT3 (rk1411) [2]; [7]): significantly inhibited

C[C@@H]1Cc2c(Cl)cc(C(=O)N[C@@H](Cc3ccccc3)C(=O)O)c(O)c2C(=O)O1 [ochratoxin A]
Vmax (rat OAT3 (rk1411) [3]; [8]): 8.08 ± 0.33 pmol/hr/oocyte
Km (rat OAT3 (rk1411) [3]; transport by rk1411 (rat OAT3) in Xenopus oocyte, FIG. 2, listed as Ochratoxin A, read-out: Km): 0.739 ± 0.178 µM
Km (rat OAT3 (rk1411) [3]; transport by rk1411 (rat OAT3) in Xenopus oocyte, FIG. 2, read-out: Km): 0.74 µM
uptake of radiolabeled compound by oocyte with hOAT3 expression (hOAT3 [4]; [9]): takes up
uptake of radiolabeled compound by oocyte in which rk1411 was expressed (rat OAT3 (rk1411) [5]): could take up

CC[N+](CC)(CC)CC [TEA, tetraethylammonium]
inhibition of the transport of 3H-estrone sulfate with hOAT3 (hOAT3 [1]): never exerted any inhibitory action
uptake of radiolabeled compound by oocyte with hOAT3 expression (hOAT3 [4]): never transported

O=C1OC(c2ccc(O)c(S(=O)(=O)O)c2)(c2ccc(O)c(S(=O)(=O)O)c2)c2c(Br)c(Br)c(Br)c(Br)c21 [bromosulfophthalein]
inhibition of the transport of 3H-estrone sulfate with hOAT3 (hOAT3 [1]): significantly inhibited
inhibition of 3H-estrone sulfate transport with rk1411 (rat OAT3 (rk1411) [2]; [7]): significantly inhibited

CN/C(=N/CCSCc1nc[nH]c1C)NC#N [cimetidine]
uptake of radiolabeled compound by oocyte with hOAT3 expression (hOAT3 [4]; substrate 150 nM, one hour, versus control oocyte): takes up

CCCCC[C@H](O)/C=C/[C@H]1[C@H](O)CC(=O)[C@@H]1C/C=C\CCCC(=O)O [prostaglandin E2]
uptake of radiolabeled compound by oocyte with hOAT3 expression (hOAT3 [4]; substrate 1 nM, one hour, versus control oocyte): takes up

CC1(C)C(/C=C/C=C/C=C/C=C2\N(CCCCS(=O)(=O)O)c3ccc4ccccc4c3C2(C)C)=[N+](CCCCS(=O)(=O)[O-])c2ccc3ccccc3c21 [indocyanine green]
inhibition of 3H-estrone sulfate transport with rk1411 (rat OAT3 (rk1411) [2]; [7]): significantly inhibited

CN1C(C(=O)Nc2ccccn2)=C(O)c2ccccc2S1(=O)=O [pyroxicam]
inhibition of 3H-estrone sulfate transport with rk1411 (rat OAT3 (rk1411) [2]; [7]): significantly inhibited

O=C(O)CCCC(=O)O [glutaric acid]
inhibition of the transport of 3H-estrone sulfate with hOAT3 (hOAT3 [1]): significantly inhibited
uptake of radiolabeled compound by oocyte with hOAT3 expression (hOAT3 [4]; [10]): takes up

CCCN(CCC)S(=O)(=O)c1ccc(C(=O)O)cc1 [probenecid]
inhibition of the transport of 3H-estrone sulfate with hOAT3 (hOAT3 [1]): significantly inhibited
inhibition of 3H-estrone sulfate transport with rk1411 (rat OAT3 (rk1411) [2]; [7]): significantly inhibited

COc1ccc(CCN(C)CCCC(C#N)(c2ccc(OC)c(OC)c2)C(C)C)cc1OC (stereo not shown) [berapamil]
inhibition of 3H-estrone sulfate transport with rk1411 (rat OAT3 (rk1411) [2]; [7]): never exerted any such inhibitory action

C[C@]12CC[C@@H]3c4ccc(O)cc4CC[C@H]3[C@@H]1CC[C@@H]2O[C@@H]1O[C@H](C(=O)O)[C@@H](O)[C@H](O)[C@H]1O [estradiol glucuronide]
uptake of radiolabeled compound by oocyte with hOAT3 expression (hOAT3 [4]; [11]): takes up

Nc1ccc(C(=O)NCC(=O)O)cc1 [PAH, p-aminohippuric acid]
Km (rat OAT3 (rk1411) [3]): 64.7 ± 10 µM
Vmax (rat OAT3 (rk1411) [3]; [8]): 23.3 ± 2.8 pmol/hr/oocyte
inhibition of the transport of 3H-estrone sulfate with hOAT3 (hOAT3 [1]): significantly inhibited
uptake of radiolabeled compound by oocyte with hOAT3 expression (hOAT3 [4]; [10]): takes up
uptake of radiolabeled compound by oocyte in which rk1411 was expressed (rat OAT3 (rk1411) [5]): could take up

C[C@H](CCC(=O)O)[C@H]1CC[C@H]2[C@@H]3[C@H](O)C[C@@H]4C[C@H](O)CC[C@]4(C)[C@H]3C[C@H](O)[C@]12C [cholic acid]
inhibition of 3H-estrone sulfate transport with rk1411 (rat OAT3 (rk1411) [2]; [7]): significantly inhibited
uptake of radiolabeled compound by oocyte with hOAT3 expression (hOAT3 [4]; [10]): takes up

O=C(O)c1ccccc1O [salicylic acid]
uptake of radiolabeled compound by oocyte with hOAT3 expression (hOAT3 [4]; substrate 1 μM, one hour, versus control oocyte): takes up

C[C@H](CCC(=O)NCCS(=O)(=O)O)[C@H]1CC[C@H]2[C@@H]3[C@H](O)C[C@@H]4C[C@H](O)CC[C@]4(C)[C@H]3C[C@H](O)[C@]12C [taurocholic acid]
inhibition of the transport of 3H-estrone sulfate with hOAT3 (hOAT3 [1]): significantly inhibited
inhibition of 3H-estrone sulfate transport with rk1411 (rat OAT3 (rk1411) [2]): significantly inhibited
uptake of radiolabeled compound by oocyte with hOAT3 expression (hOAT3 [4]; [10]): takes up

N=C(N)N [guanidine]
inhibition of 3H-estrone sulfate transport with rk1411 (rat OAT3 (rk1411) [2]; [7]): never exerted any such inhibitory action

dehydroepiandrosterone sulfate
uptake of radiolabeled compound by oocyte with hOAT3 expression (hOAT3 [4]; [11]): takes up

CN(Cc1cnc2nc(N)nc(N)c2n1)c1ccc(C(=O)N[C@@H](CCC(=O)O)C(=O)O)cc1 [methotrexate]
inhibition of the transport of 3H-estrone sulfate with hOAT3 (hOAT3 [1]): significantly inhibited
uptake of radiolabeled compound by oocyte with hOAT3 expression (hOAT3 [4]; [9]): takes up

CCCCNc1cc(C(=O)O)cc(S(N)(=O)=O)c1Oc1ccccc1 [bumetanide]
inhibition of 3H-estrone sulfate transport with rk1411 (rat OAT3 (rk1411) [2]; [7]): significantly inhibited

COc1ccc2c(c1)c(CC(=O)O)c(C)n2C(=O)c1ccc(Cl)cc1 [indomethacin]
inhibition of the transport of 3H-estrone sulfate with hOAT3 (hOAT3 [1]): significantly inhibited
uptake of radiolabeled compound by oocyte with hOAT3 expression (hOAT3 [4]; [10]): takes up

B1: rat OAT3 (rk1411) (Rattus norvegicus) (protein)
chain: MTFSEILDRVGSMGPFQYLHVTLLALPVLGIANHNLLQIFTATTPVHHCRPPPNASIGPWVLPLDPNGKPEKCLRFVHLPNASLPNDTQRATEPCLDGWIYNSTRDTIVIEWDLVCSSNKLKEMAQSIFMAGILVGGPVIGELSDRFGRKPILTWSYLMLAASGSGAAFSPSLPVYMIFRFLCGCSISGISLSTVILNVEWVPTSMRAISSTSIGYCYTIGQFILSGLAYAIPQWRWLQLTSSAPFFIFSLLSWWVPESIRWLVLSGKYSKALKTLQRVATFNGKKEEGKKLTIEELKFNLQKDITSAKVKYGLSDLFRVSILRRVTFCLSLAWFSTGFAYYSLAMGVEEFGVNIYILQIIFGGVDIPAKFITILSLSYLGRRITQSFLLLLAGGAILALIFVPSEMQLLRTALAVFGKGCLSGSFSCLFLYTSELYPTVLRQTGMGISNVWARVGSMIAPLVKITGELQPFIPNVIFGTTALLGGSAAFFLLETLNRPLPETIEDIQNWHKQVQKTKQESEAEKASQIIPLKTGG
notes: cRNA (RNA complementary to cDNA) was prepared in vitro from the plasmid carrying the clone (rk1411); expressed in transfected cells; host or cells: Xenopus oocytes injected with rk1411 cRNA
Km [6]: 4.7 µM
